According to patent publication US20190351012A1, “TARGETING OF INTERFERON-STIMULATED GENE EXPRESSION TO TREAT INTERFERONOPATHIES” (New York University, priority 2018, published 2019):

System: p21^Cip1/wAF1 expression in HeLa cells
Experiment: p21 Cip1/WAF1 expression in HeLa cells, real-time RT-PCR (control for HDAC inhibition)
Type: cell-based, human
Settings: IFN-α 6 h, FIG. 1B
Procedure: FIG. 1. Class I HDAC mediates ISG expression. (A, B) HeLa cells were treated with IFN-α for 6 h in the absence or presence of increasing concentrations of Romidepsin or TSA, as indicated. RNA was quantified by real-time RT-PCR for ISG54 and p21^wAF1/Cip1 expression, normalized to GAPDH, and represented as fold induction over untreated cells. (C) HeLa cells were treated with IFN-α for 6 h in the absence or presence of increasing concentrations of romidepsin, RGFP966, or RGFP233, as indicated. RNA was quantified by real-time RT-PCR for IRF9 expression, normalized to GAPDH and represented as fold induction over untreated cells. HEK293 cells were transfected with siRNA against HDAC1, HDAC2, or E2F4 separately (D) or with a combination of HDAC1 and HDAC2 targeting oligonucleotides (E) and cells were stimulated with IFN-α for 6 h (α) in the presence (αT) or absence of TSA, as indicated. Whole cell extracts were analyzed for expression of the indicated proteins by western blotting (left panels). ISG54 expression was quantified by real-time RT-PCR, and represented as fold induction over untreated cells (right panels). (F) HEK293T cells were transfected with pcDNA3 (Ctl), HDAC1, or HDAC2 expression constructs, and ISG54 expression was quantified after stimulation with IFN-α for 10 h. […] Nuclear extracts were analyzed for expression of Sin3B by western blotting (middle panels). […]

Structure (SMILES): CC(/C=C/C(=O)NO)=C\[C@@H](C)C(=O)c1ccc(N(C)C)cc1 [TSA, Trichostatin A]
- p21 Cip1/WAF1 expression: led to p21^Cip1/wAF1 expression
